Laboratory results: patent publication US8809341B2, “2,4-pyrimidinediamine compounds and uses as anti-proliferative agents” (Rigel Pharmaceuticals, Inc., priority 2003, dated 2014)

The compounds below were run on A549 cells (assay: in vitro antiproliferation assay, A549 (lung)). Settings: A549 (lung) cells, antiproliferation.
Assay type: cell-based
Procedure: The IC50 values of various compounds against a various different tumor cell lines were determined using standard in vitro antiproliferation assays. The tumor cell lines tested were as follows: A549 (lung); H1299 (lung), ACHN (kidney/p53 wt), CAKI (renal cell carcinoma), NCI-H460 (lung); HCT116 (colon/p53w0; HELA (cervix/p53 wt), HUH7 (liver/p53 wt), HUVEC (primary endothelial), LNCAP (prostate), HT-29 (colon); MCF-7 (breast); MCF-7 (breast/ER positive), MDA MB435S (breast); MDA MB231 (breast/ER negative), DU145 (prostate); BxPC-3 (pancreatic); SKOV-3 (ovarian); HepG2 (hepatic), NDHF primary normal human dermal fibroblast), SKMEL28 (breast/p53mut), SKMEL5 (breast/p53 wt), U20S (bone) and PC3 (prostate). […] A blank indicates the specified compound was not tested against the specified cell line.

IC50 [µM] | SMILES
> 20 | OCCOc1cccc(Nc2ncc(F)c(Nc3ccc(CO)c(CO)c3)n2)c1 [compound 967]
> 20 | Oc1c(Cl)cc(Nc2ncc(F)c(Nc3cc(Cl)c(O)c(Cl)c3)n2)cc1Cl [compound 941]
> 20 | CNC(=O)COc1cccc(Nc2ncc(F)c(Nc3ccc(O)cc3)n2)c1 [compound 1004]
> 20 | COC(=O)COc1ccc(Nc2ncc(F)c(Nc3ccc(C(C)C)cc3)n2)cc1 [compound 936]
> 20 | CC(C)c1ccc(Nc2nc(Nc3cccc(OCCO)c3)ncc2F)cc1 [compound 935]
< 20 | Oc1ccc(Nc2ncc(F)c(Nc3ccc(O)c(C(F)(F)F)c3)n2)cc1C(F)(F)F [compound 996]
> 20 | CCOC(=O)CCOc1ccc(Nc2nc(Nc3cccc(OCC(=O)NC)c3)ncc2F)cc1 [compound 1003]
> 20 | NC(=O)COc1ccc(Nc2ncc(F)c(Nc3ccc(OCC(N)=O)cc3)n2)cc1 [compound 971]
> 20 | COc1ccc(Nc2nc(Nc3cccc(C(C)(C)C)c3)ncc2F)cc1OC [compound 953]
> 20 | CNC(=O)COc1cccc(Nc2ncc(F)c(Nc3cccc(C(C)C)c3)n2)c1 [compound 965]
> 20 | CCOc1cccc(Nc2ncc(F)c(Nc3cccc(C(C)C)c3)n2)c1 [compound 964]
> 20 | COC(=O)COc1cccc(Nc2ncc(F)c(Nc3cccc(O)c3)n2)c1 [compound 976]
≤ 20 | Cc1cccc(Nc2ncc(F)c(Nc3cccc(C)c3)n2)c1 [compound 997]
> 20 | Cc1ccc(Nc2ncc(F)c(Nc3ccc(C)cc3)n2)cc1 [compound 998]
≤ 20 | OCCOc1ccc(Nc2ncc(F)c(Nc3cccc(O)c3)n2)cc1 [compound 934]
> 20 | OCCOc1cccc(Nc2nc(Nc3cccc(O)c3)ncc2F)c1 [compound 939]
> 20 | CNC(=O)COc1cccc(Nc2ncc(F)c(Nc3ccc(OCCC(=O)OC)cc3)n2)c1 [compound 1002]
> 20 | CC(C)(C)c1cccc(Nc2ncc(F)c(Nc3cccc(O)c3)n2)c1 [compound 951]
> 20 | COC(=O)COc1ccc(Nc2nc(Nc3ccc(OCC(N)=O)cc3)ncc2F)cc1 [compound 973]
≤ 20 | Cc1cc(Nc2ncc(F)c(Nc3cccc(O)c3)n2)cc(Cl)c1O [compound 943]

Same assay, conditions: A549 (lung) cells, in vitro antiproliferation

IC50 [µM] | SMILES
> 20 | Fc1cnc(Nc2cccc(OC(F)(F)F)c2)nc1Nc1cccc(OC(F)(F)F)c1 [compound 705]
≤ 20 | COc1ccc(Nc2nc(Nc3cccc(O)c3)ncc2F)cc1OC [compound 715]
> 20 | COc1ccc(Nc2ncc(F)c(Nc3cccc(O)c3)n2)cc1OC [compound 712]
> 20 | CCc1ccc(Nc2ncc(F)c(Nc3ccc(CC)cc3)n2)cc1 [compound 722]
≤ 20 | CNC(=O)COc1cccc(Nc2ncc(F)c(Nc3cccc(C(F)(F)F)c3)n2)c1 [compound 770]
> 20 | Fc1cc(Nc2ncc(F)c(Nc3ccc(C(F)(F)F)c(F)c3)n2)ccc1C(F)(F)F [compound 703]
≤ 20 | COc1ccc(Nc2ncc(F)c(Nc3ccc(OC)c(O)c3)n2)cc1O [compound 725]
> 20 | O=C(O)COc1ccc(Nc2ncc(F)c(Nc3ccc(OCC(=O)O)cc3)n2)cc1 [compound 733]
> 20 | CCOc1ccc(Nc2nc(Nc3ccc(OC)c(OC)c3)ncc2F)cc1 [compound 709]
> 20 | CNC(=O)COc1ccc(Nc2ncc(F)c(Nc3ccc(OCC(=O)O)cc3)n2)cc1 [compound 734]
≤ 20 | Oc1cccc(Nc2ncc(F)c(Nc3cccc(O)c3)n2)c1 [compound 711]
> 20 | Cc1cc(Nc2ncc(F)c(Nc3ccc(O)c(C)c3)n2)ccc1O [compound 731]
> 20 | CCOC(=O)COc1ccc(Nc2ncc(F)c(Nc3ccc(OCC(=O)OCC)cc3)n2)cc1 [compound 737]
≤ 20 | COc1cccc(Nc2ncc(F)c(Nc3cccc(OC)c3)n2)c1 [compound 708]
> 20 | CCOc1ccc(Nc2nc(Nc3cccc(O)c3)ncc2F)cc1 [compound 714]
> 20 | COc1cc(Nc2ncc(F)c(Nc3cc(OC)c(OC)c(OC)c3)n2)cc(OC)c1OC [compound 743]
≤ 20 | CNC(=O)COc1cccc(Nc2nc(Nc3cc(OC)cc(OC)c3)ncc2F)c1 [compound 771]
> 20 | CC(C)Oc1ccc(Nc2ncc(F)c(Nc3ccc(OC(C)C)cc3)n2)cc1 [compound 745]
> 20 | Fc1cnc(Nc2ccc(Cl)cc2)nc1Nc1ccc(Cl)cc1 [compound 716]
≤ 20 | COC(=O)COc1ccc(Nc2ncc(F)c(Nc3ccc(OCC(=O)OC)cc3)n2)cc1 [compound 723]
≤ 20 | Oc1ccc(Nc2ncc(F)c(Nc3ccc(O)cc3)n2)cc1 [compound 730]
≤ 20 | CNC(=O)COc1cccc(Nc2ncc(F)c(Nc3ccc(OC)c(Cl)c3)n2)c1 [compound 788]
≤ 20 | CN(C)CCOc1ccc(Nc2ncc(F)c(Nc3cccc(O)c3)n2)cc1 [compound 693]
> 20 | CCOC(=O)COc1ccc(Nc2ncc(F)c(Nc3cccc(O)c3)n2)cc1 [compound 729]
> 20 | Fc1cnc(Nc2ccc(Cl)c(C(F)(F)F)c2)nc1Nc1ccc(Cl)c(C(F)(F)F)c1 [compound 706]
> 20 | CC(C)(C)OC(=O)COc1ccc(Nc2ncc(F)c(Nc3ccc(OCC(=O)OC(C)(C)C)cc3)n2)cc1 [compound 739]
> 20 | O=C(O)COc1ccc(Nc2ncc(F)c(Nc3cccc(Cl)c3)n2)cc1 [compound 736]
≤ 20 | Oc1cccc(Nc2nc(Nc3ccc(OCCN4CCOCC4)cc3)ncc2F)c1 [compound 744]
> 20 | COC(=O)COc1ccc(Nc2ncc(F)c(Nc3ccc(OCC(=O)OC(C)(C)C)cc3)n2)cc1 [compound 738]

Same assay, conditions: Homo sapiens; A549 (lung) cells

IC50 [µM] | SMILES
≤ 20 | Cn1nc(-c2ccccc2)cc1Nc1nc(Nc2cccc(-c3ncco3)c2)ncc1F [compound 1161]

Same assay, conditions: Homo sapiens; IC50 class against A549 (lung) tumor cells

IC50 [µM] | SMILES
≤ 20 | CC(C)(C)c1cc(Nc2nc(Nc3cccc(N4CCOCC4)c3)ncc2F)n[nH]1 [compound 199]

Same assay, conditions: IC50 class against A549 (lung) tumor cells

IC50 [µM] | SMILES
> 20 | COc1ccc(Nc2ncc(F)c(Nc3ccc4c(c3)OCCO4)n2)c(OC)c1 [compound 1045]
> 20 | C=CCNc1ncc(F)c(Nc2ccc3c(c2)OCCO3)n1 [compound 1037]

Same assay, conditions: Table 5; in vitro antiproliferation, A549 (lung) cells

IC50 [µM] | SMILES
> 20 | CCc1ccc(Nc2ncc(F)c(Nc3ccc4c(c3)OCCO4)n2)cc1 [compound 489]
> 20 | CNCCOc1cccc(Nc2ncc(F)c(Nc3ccc4c(c3)OCCO4)n2)c1 [compound 498]
> 20 | Fc1ccc(Nc2ncc(F)c(Nc3ccc4c(c3)OCCO4)n2)cc1Cl [compound 485]
≤ 20 | O=C(COc1cccc(Nc2ncc(F)c(Nc3ccc4c(c3)OCCO4)n2)c1)NC1CC1 [compound 520]
≤ 20 | CCOc1ccc(Nc2ncc(F)c(Nc3ccc4c(c3)OCCO4)n2)cc1 [compound 478]
> 20 | COC(=O)COc1cccc(Nc2ncc(F)c(Nc3ccc4c(c3)OCCO4)n2)c1 [compound 586]
≤ 20 | OCCOc1ccc(Nc2ncc(F)c(Nc3ccc4c(c3)OCCO4)n2)cc1 [compound 587]
> 20 | CC(=O)COc1cccc(Nc2ncc(F)c(Nc3ccc4c(c3)OCCO4)n2)c1 [compound 492]
≤ 20 | OCCOc1cccc(Nc2ncc(F)c(Nc3ccc4c(c3)OCCO4)n2)c1 [compound 576]
> 20 | Fc1ccc(Nc2ncc(F)c(Nc3ccc4c(c3)OCCO4)n2)cc1 [compound 487]
> 20 | CN(C)C(=O)COc1cccc(Nc2ncc(F)c(Nc3ccc4c(c3)OCCO4)n2)c1 [compound 481]
> 20 | CCCCCCOc1ccc(Nc2ncc(F)c(Nc3ccc4c(c3)OCCO4)n2)cc1 [compound 477]
> 20 | Oc1cccc(Nc2ncc(F)c(Nc3ccc4c(c3)OCCO4)n2)c1 [compound 482]
> 20 | Fc1cnc(Nc2cccc(C(F)(F)F)c2)nc1Nc1ccc2c(c1)OCCO2 [compound 514]
> 20 | CCOC(=O)COc1ccc(Nc2ncc(F)c(Nc3ccc4c(c3)OCCO4)n2)cc1 [compound 480]

Same assay, conditions: Table 7; in vitro antiproliferation, A549 (lung) cells

IC50 [µM] | SMILES
> 20 | COC(=O)c1cc2cc(Nc3ncc(F)c(Nc4ccc(C(C)(C)C)cc4)n3)ccc2o1 [compound 619]
> 20 | COC(=O)c1cc2cc(Nc3ncc(F)c(Nc4cccc(OC(C)C)c4)n3)ccc2o1 [compound 623]
> 20 | O=C(NCCO)c1cc2cc(Nc3ncc(F)c(Nc4cccc(O)c4)n3)ccc2o1 [compound 630]
> 20 | O=C(c1cc2cc(Nc3ncc(F)c(Nc4cccc(O)c4)n3)ccc2o1)N1CCOCC1 [compound 624]
> 20 | CNC(=O)c1cc2cc(Nc3ncc(F)c(Nc4cccc(C(C)(C)C)c4)n3)ccc2o1 [compound 675]
≤ 20 | CCOC(=O)c1cc2cc(Nc3ncc(F)c(Nc4ccc5c(c4)OCCO5)n3)ccc2[nH]1 [compound 618]
> 20 | CNC(=O)c1cc2cc(Nc3ncc(F)c(Nc4ccc(C(C)(C)C)cc4)n3)ccc2o1 [compound 628]
> 20 | CNC(=O)c1cc2cc(Nc3ncc(F)c(Nc4cccc(O)c4)n3)ccc2o1 [compound 627]
> 20 | COC(=O)c1cc2cc(Nc3ncc(F)c(Nc4ccc(OC(C)C)cc4)n3)ccc2o1 [compound 641]
> 20 | O=C(O)c1cc2cc(Nc3ncc(F)c(Nc4ccc5c(c4)OCCO5)n3)ccc2o1 [compound 639]
> 20 | CC(C)(C)c1ccc(Nc2nc(Nc3ccc4oc(C(=O)O)cc4c3)ncc2F)cc1 [compound 622]
